{"source": "patent US6214859A", "about": "“Ethylamine derivatives” (Fujimoto Brothers Co., Ltd., priority 1997, dated 2001)", "key": {"human platelet MAO-B": {"molecular_target": "T1, human platelet MAO-B (Homo sapiens, UniProt P27338)", "T1 construct": "The suspension was used as enzyme for MAO activity assay in blood platelets; from tissue; host or cells: human blood platelets (frozen, thawed and sonicated platelet rich plasma)", "T1 sequence (P27338 1-520)": "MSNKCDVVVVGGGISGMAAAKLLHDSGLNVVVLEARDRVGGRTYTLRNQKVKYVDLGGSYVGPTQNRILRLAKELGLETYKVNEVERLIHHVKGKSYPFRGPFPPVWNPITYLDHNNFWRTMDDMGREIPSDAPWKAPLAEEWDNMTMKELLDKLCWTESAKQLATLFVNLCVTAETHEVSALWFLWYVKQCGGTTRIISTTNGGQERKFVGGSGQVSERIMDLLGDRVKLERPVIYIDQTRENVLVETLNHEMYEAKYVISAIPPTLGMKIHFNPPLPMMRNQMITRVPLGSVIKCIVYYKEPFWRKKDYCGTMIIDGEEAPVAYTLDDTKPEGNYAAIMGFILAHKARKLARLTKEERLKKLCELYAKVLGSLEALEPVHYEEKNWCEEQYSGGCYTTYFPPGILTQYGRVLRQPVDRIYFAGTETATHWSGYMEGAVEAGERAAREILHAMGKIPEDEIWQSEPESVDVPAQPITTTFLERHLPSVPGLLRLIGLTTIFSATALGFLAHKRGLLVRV", "test": "biochemical", "details": "10^-5 M; read-out: Inhibition rate of MAO-B", "protocol": "Human blood added with 3.8% citric acid was centrifuged at 950 rpm for 10 min and platelet rich plasma (PRP) was obtained. The residual blood cell was centrifuged at 3,000 rpm for 10 min and platelet poor plasma (PPP) was obtained. After blood platelets were measured from a part of PRP, PRP and PPP were frozen at -20° C. They were thawed and were sonicated to be dispersed and suspended when MAO activity was measured. The suspension was used as enzyme for MAO activity assay in blood platelets. In addition, almost all of MAO in blood platelets have been known to be B type.\nMAO-B activity was determined according to the method described in Biochem. Pharmacol., 14, 1684-1685 (1965). […] The mixture was incubated at 37° C. for 5 min. After 80 μl of PRP or PPP was added to it, the mixture was incubated at 37° C. for 20 min. Thereafter, 120 μl of substrate (0.33 mg/ml kynuramine dihydrobromide) was added thereto. After incubation at 37° C. for 30 min, 800 μl of 10% trichloroacetic acid were added to stop the reaction and the solution was centrifuged at 3,000 rpm for 10 min. To 1 ml of the supernatant, 2 ml of 1 N NaOH was added and fluorescence of the solution was measured at Ex 312 nm and Em 380 nm. PRP was prepared to 250,000 cell/μl as amounts of blood platelets with […] phosphate buffer solution and 4-hydroxyquinoline was used as standard for measurement."}, "[1]": {"tested_on": "dopamine release, striatum", "test": "Release of biogenic amines from brain tissue: dopamine, striatum", "assay_type": "in vivo, Wistar rats"}, "α2 receptor": {"molecular_target": "α2 receptor", "test": "Affinity to α2 receptor", "parameters": "species or system rat", "details": "read-out: Affinity to α2 receptor (MIC50; mole concentration for 50% inhibition of binding); 0.7 nM ^3H-rauwolscine"}, "D2 receptor": {"molecular_target": "D2 receptor", "test": "Affinity to D2 receptor", "parameters": "species or system rat", "details": "read-out: Affinity to D2 receptor (MIC50; mole concentration for 50% inhibition of binding); 2.0 nM spiperone"}, "D1 receptor": {"molecular_target": "T2, D1 receptor (Rattus norvegicus, UniProt P18901)", "T2 construct": "The precipitate was used as the solution of receptor; from tissue; host or cells: rat brain (whole) crude membranes", "T2 sequence (P18901 whole entry)": "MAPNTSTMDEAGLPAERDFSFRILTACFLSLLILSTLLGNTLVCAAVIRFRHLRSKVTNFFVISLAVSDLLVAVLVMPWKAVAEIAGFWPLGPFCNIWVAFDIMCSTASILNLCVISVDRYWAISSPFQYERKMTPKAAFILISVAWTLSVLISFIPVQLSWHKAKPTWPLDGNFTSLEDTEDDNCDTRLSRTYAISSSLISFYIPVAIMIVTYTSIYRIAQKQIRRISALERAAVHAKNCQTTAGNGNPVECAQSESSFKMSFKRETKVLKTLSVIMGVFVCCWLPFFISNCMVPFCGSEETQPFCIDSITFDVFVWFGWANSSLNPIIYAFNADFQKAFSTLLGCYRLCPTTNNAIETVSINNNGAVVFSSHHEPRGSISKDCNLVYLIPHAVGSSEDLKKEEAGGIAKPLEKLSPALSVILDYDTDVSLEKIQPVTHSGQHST", "test": "Affinity to D1 receptor", "assay_type": "binding"}, "5-HT2 receptor": {"molecular_target": "T3, 5-HT2 receptor (Rattus norvegicus, UniProt P14842)", "T3 construct": "The precipitate was used as the solution of receptor; from tissue; host or cells: rat brain (whole) crude membranes", "T3 sequence (P14842 whole entry)": "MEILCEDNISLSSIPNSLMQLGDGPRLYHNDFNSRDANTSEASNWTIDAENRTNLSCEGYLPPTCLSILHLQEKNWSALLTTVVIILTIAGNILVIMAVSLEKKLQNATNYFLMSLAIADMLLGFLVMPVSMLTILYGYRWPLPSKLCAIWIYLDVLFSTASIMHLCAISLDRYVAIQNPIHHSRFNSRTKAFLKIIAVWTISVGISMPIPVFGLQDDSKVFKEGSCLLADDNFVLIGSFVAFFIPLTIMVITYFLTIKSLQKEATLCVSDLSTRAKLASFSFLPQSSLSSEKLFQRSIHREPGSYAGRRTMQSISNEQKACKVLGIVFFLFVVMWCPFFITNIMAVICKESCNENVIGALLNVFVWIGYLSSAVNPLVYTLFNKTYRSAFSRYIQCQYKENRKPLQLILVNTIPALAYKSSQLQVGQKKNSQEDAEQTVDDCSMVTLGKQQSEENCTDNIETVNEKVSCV", "test": "Affinity to 5-HT2 receptor", "assay_type": "binding"}}, "note": "Where “and” joins values, the source holds several entries; their conditions need not be identical. Identical values can stand only once.", "data": [{"smiles": "CCCNC(CCC)Cc1ccc2c(c1)OCO2.Cl", "note": "(centres unmarked) [Compound No. 27, 1-(1,3-Benzodioxol-5-yl)-2-propylaminopentane Hydrochloride]", "values": [{"measurement": "inhibition at 10 µM", "setting": "human platelet MAO-B", "result": 34, "unit": "%"}, {"measurement": "Release of dopamine, striatum", "setting": "[1]; 0.10 mg/kg s.c.", "result": "3.4 ± 0.10 nmol/g tissue, for 20 min"}, {"measurement": "Release of dopamine, striatum", "setting": "[1]; 0.25 mg/kg s.c.", "result": "4.1 ± 0.24 nmol/g tissue, for 20 min"}]}, {"smiles": "CCCNC(CCC)Cc1c[nH]c2ccccc12.Cl", "note": "(centres unmarked) [Compound No. 20, 1-(Indol-3-yl)-2-propylaminopentane Hydrochloride]", "values": [{"measurement": "IC50", "setting": "α2 receptor", "result": 0.9, "unit": "µM"}, {"measurement": "inhibition at 10 µM", "setting": "human platelet MAO-B", "result": 6.4, "unit": "%"}, {"measurement": "IC50", "setting": "D2 receptor", "result": "> 10", "unit": "µM"}, {"measurement": "IC50", "setting": "D1 receptor", "result": "> 10", "unit": "µM"}, {"measurement": "IC50", "setting": "5-HT2 receptor", "result": "> 10", "unit": "µM"}, {"measurement": "Release of dopamine, striatum", "setting": "[1]; 0.005 mg/kg s.c.", "result": "5.8 ± 0.11 nmol/g tissue, for 20 min"}, {"measurement": "Release of dopamine, striatum", "setting": "[1]; 0.01 mg/kg s.c., Hydrochloride", "result": "6.5 ± 0.12 nmol/g tissue, for 20 min and 5.8 ± 0.18 nmol/g tissue, for 20 min"}, {"measurement": "Release of dopamine, striatum", "setting": "[1]; 0.05 mg/kg s.c.", "result": "5.6 ± 0.13 nmol/g tissue, for 20 min"}, {"measurement": "Release of dopamine, striatum", "setting": "[1]; 0.25 mg/kg s.c.", "result": "3.2 ± 0.05 nmol/g tissue, for 20 min"}, {"measurement": "Release of dopamine, striatum", "setting": "[1]; 1.00 mg/kg s.c.", "result": "4.2 ± 0.15 nmol/g tissue, for 20 min"}, {"measurement": "Release of dopamine, striatum", "setting": "[1]; 5.00 mg/kg s.c.", "result": "4.7 ± 0.13 nmol/g tissue, for 20 min"}]}]}
